These results are taken from ChEMBL document CHEMBL5338738, “Discovery of Novel Sesquiterpene Lactone Derivatives as Potent PKM2 Activators for the Treatment of Ulcerative Colitis” (J Med Chem, 2023).

The nature of data set [1]: Volume of distribution in Sprague-Dawley rat at 8 mg/kg,iv and measured upto 24 hrs by LC-MS/MS analysis. In kind it is ADME, organism-based. As to conditions: in vivo.
Data set [2] can be described thus: Cmax in Sprague-Dawley rat at 75 mg/kg,po and measured upto 24 hrs by LC-MS/MS analysis. Further details: dose 75 mg/kg, time < 24 hrs, route po. In kind it is ADME, organism-based. As to conditions: in vivo.
Data set [3] has as its system Mus musculus. The data set can be described thus: Anti-colitis activity against TNBS-induced ulcerative colitis BALB/c mouse model assessed as increase in survival rate at 12.5 to 25 mg/kg, po for consecutive 7 days. In kind it is functional, organism-based. As to conditions: dose 12.5-25 mg/kg, time 7.0 day.
The test system of data set [4] is Mus musculus. Put plainly: Anti-colitis activity against TNBS-induced ulcerative colitis BALB/c mouse model assessed as decrease in crypt necrosis in colon at 12.5 to 25 mg/kg, po for consecutive 7 days by H and E staining based microscopy. Format: functional, organism-based. As to conditions: dose 12.5-25 mg/kg, time 7.0 day.
The nature of data set [5]: Inhibition of Th17 cells differentiation in anti-CD3/CD28 stimulated C57BL/6 mouse mesenteric lymph node CD4+ve Th cells assessed as decrease in proportion of IL17A-positive Th17 cells at 0.3 uM incubated for 96 hrs in presence of recombinant human TGF-beta, recombinant mouse IL-6 and recombinant mouse IL-23 by flow cytometry (Rvb= 16.7%). Conditions: C57BL/6, CD4+ve Th. Format: functional. Background: Flow cytometry measures light scatter and fluorescence of single cells or particles in a stream.

The subject of the next data set is CD4+ve Th. Put plainly: Inhibition of Th17 cells differentiation in anti-CD3/CD28 stimulated C57BL/6 mouse mesenteric lymph node CD4+ve Th cells assessed as downregulation of IL22 mRNA expression level at 0.1 to 3 uM incubated for 96 hrs in presence of recombinant human TGF-beta, recombinant mouse IL-6 and recombinant mouse IL-23 by qPCR analysis. As to conditions: dose 0.1-3 µM. In kind it is functional, cell-based. A general note: Real-time PCR tracks product formation cycle by cycle.

Calls of active or inactive are those of the source. No cut-off for these calls is given here.

Broadly, the Vd is the apparent volume that relates the amount in the body to the concentration in plasma or blood. Low readings indicate confinement near the circulation, high ones extensive tissue distribution. The term Cmax denotes the peak of the concentration-time curve. In the case of `C=C1C(=O)O[C@H]2[C@H]1CC[C@@]1(C)[C@@H](CC[C@@]3(C)O[C@@H]23)C1(F)F`, the Vd in data set [1] was 17.6 L/kg. Also, the highest concentration (Cmax) in data set [2] worked out at 82 ng/mL. Besides, the outcome in the data set on Mus musculus [3] and in the data set on Mus musculus [4] was Active. Further, the IL17A+ cells at 0.3 µM in data set [5] came to 12.4%. Besides, the inhibition entry in the data set on CD4+ve Th is “Active”.
